According to ChEMBL document CHEMBL4400519, “Indazolylketones as new multitarget cannabinoid drugs” (Eur J Med Chem, 2019):
pIC50: −log10 of the molar value. Active and inactive are the calls of the source. No cut-off for these calls is given here.

Key:
[1] = target: T1, Cannabinoid receptor (Mus musculus) (UniProt P47746+P47936); experiment: Agonist activity at cannabinoid receptor in ICR mouse vas deferens assessed as inhibition of electrically induced contractions at 9 x 10^-7 M after 10 mins relative to control; format: protein assay
T1 sequence (P47746 whole entry, looked up): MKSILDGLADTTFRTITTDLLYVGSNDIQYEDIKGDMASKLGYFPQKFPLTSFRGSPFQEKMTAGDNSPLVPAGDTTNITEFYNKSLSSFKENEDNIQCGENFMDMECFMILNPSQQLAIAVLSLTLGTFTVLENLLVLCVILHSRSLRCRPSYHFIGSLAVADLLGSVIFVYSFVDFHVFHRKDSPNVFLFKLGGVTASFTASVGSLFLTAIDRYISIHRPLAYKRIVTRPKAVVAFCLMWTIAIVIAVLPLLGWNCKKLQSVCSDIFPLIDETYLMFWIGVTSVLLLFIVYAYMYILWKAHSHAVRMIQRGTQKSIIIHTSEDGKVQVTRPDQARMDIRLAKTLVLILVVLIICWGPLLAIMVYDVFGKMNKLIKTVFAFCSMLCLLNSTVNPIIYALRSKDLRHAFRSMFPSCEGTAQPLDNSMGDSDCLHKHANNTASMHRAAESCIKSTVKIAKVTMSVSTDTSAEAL
T1 sequence (P47936 whole entry, looked up): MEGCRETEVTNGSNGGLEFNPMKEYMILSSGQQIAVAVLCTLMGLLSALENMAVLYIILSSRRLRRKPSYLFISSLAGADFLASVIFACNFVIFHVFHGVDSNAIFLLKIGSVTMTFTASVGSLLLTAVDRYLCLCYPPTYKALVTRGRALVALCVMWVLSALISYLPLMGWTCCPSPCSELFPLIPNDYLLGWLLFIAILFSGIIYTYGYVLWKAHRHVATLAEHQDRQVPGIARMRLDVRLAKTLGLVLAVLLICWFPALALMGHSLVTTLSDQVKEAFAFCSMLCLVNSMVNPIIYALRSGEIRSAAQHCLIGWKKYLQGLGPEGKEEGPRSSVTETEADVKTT

[2] = target: T1, Cannabinoid receptor (Mus musculus); experiment: Agonist activity at cannabinoid receptor in ICR mouse vas deferens assessed as inhibition of electrically induced contractions at 8.1 x 10^-6 M after 10 mins in presence of CB1 antagonist AM251 relative to control; format: protein assay
[3] = target: Beta-secretase 1 (Homo sapiens) (UniProt P56817); experiment: Inhibition of human BACE1 at 10 uM incubated for 60 mins using rhodamine-EVNLDAEFK-quencher substrate by FRET assay
Beta-secretase 1 (Homo sapiens), sequence (P56817 whole entry): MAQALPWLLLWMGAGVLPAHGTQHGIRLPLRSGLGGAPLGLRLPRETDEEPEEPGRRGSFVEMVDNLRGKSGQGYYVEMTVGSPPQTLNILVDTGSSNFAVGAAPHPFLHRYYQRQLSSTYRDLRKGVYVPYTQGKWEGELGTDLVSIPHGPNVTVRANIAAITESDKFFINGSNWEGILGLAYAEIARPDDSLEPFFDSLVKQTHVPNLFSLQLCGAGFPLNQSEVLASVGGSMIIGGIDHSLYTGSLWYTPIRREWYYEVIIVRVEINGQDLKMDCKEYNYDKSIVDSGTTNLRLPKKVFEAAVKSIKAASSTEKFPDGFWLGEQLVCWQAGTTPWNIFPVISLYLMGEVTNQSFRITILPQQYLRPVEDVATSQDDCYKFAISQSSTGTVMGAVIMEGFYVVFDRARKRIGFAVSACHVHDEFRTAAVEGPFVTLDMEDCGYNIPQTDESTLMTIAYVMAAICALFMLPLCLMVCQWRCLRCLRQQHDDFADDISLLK

[4] = target: T1, Cannabinoid receptor (Mus musculus); experiment: Agonist activity at cannabinoid receptor in ICR mouse vas deferens assessed as inhibition of electrically induced contractions at 3 x 10^-7 M after 10 mins in presence of CB1 antagonist AM251 relative to control; format: protein assay
[5] = target: Cholinesterase (Homo sapiens, UniProt P06276); experiment: Inhibition of human serum BChE using butyrylthiocholine as substrate by Ellman's assay
Cholinesterase, sequence (P06276 whole entry): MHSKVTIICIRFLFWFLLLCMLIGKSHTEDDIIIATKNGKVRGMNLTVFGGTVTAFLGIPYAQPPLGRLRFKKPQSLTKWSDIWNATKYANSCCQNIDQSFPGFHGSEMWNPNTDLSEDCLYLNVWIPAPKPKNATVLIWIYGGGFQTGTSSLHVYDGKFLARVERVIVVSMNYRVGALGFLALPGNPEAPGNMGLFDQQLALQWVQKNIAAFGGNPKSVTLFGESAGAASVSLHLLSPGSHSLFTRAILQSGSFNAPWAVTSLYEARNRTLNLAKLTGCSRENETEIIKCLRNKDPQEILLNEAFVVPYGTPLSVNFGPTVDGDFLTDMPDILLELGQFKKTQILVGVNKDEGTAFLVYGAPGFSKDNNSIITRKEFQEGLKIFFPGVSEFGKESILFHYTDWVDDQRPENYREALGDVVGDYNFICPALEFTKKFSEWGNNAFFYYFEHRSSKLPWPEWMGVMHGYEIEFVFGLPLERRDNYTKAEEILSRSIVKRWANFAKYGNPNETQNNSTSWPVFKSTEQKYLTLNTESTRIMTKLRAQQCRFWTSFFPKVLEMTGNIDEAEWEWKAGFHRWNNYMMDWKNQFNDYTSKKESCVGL

[6] = Antioxidant activity assessed as trolox equivalent of APPH-induced radical scavenging activity by ORAC-FL assay; format: functional
[7] = target: T1, Cannabinoid receptor (Mus musculus); experiment: Agonist activity at cannabinoid receptor in ICR mouse vas deferens assessed as inhibition of electrically induced contractions at 3 x 10^-7 M after 10 mins relative to control; format: protein assay
[8] = target: T1, Cannabinoid receptor (Mus musculus); experiment: Agonist activity at cannabinoid receptor in ICR mouse vas deferens assessed as inhibition of electrically induced contractions at 10^-7 M after 10 mins in presence of CB2 antagonist AM630 relative to control; format: protein assay
[9] = target: T1, Cannabinoid receptor (Mus musculus); experiment: Agonist activity at cannabinoid receptor in ICR mouse vas deferens assessed as inhibition of electrically induced contractions at 8.1 x 10^-6 M after 10 mins in presence of CB2 antagonist AM630 relative to control; format: protein assay
[10] = target: T1, Cannabinoid receptor (Mus musculus); experiment: Agonist activity at cannabinoid receptor in ICR mouse vas deferens assessed as inhibition of electrically induced contractions at 1.82 x 10^-5 M after 10 mins in presence of CB2 antagonist AM630 relative to control; format: protein assay
[11] = target: T1, Cannabinoid receptor (Mus musculus); experiment: Agonist activity at cannabinoid receptor in ICR mouse vas deferens assessed as inhibition of electrically induced contractions at 2.7 x 10^-6 M after 10 mins in presence of CB2 antagonist AM630 relative to control; format: protein assay
[12] = target: T1, Cannabinoid receptor (Mus musculus); experiment: Agonist activity at cannabinoid receptor in ICR mouse vas deferens assessed as inhibition of electrically induced contractions at 2.7 x 10^-6 M after 10 mins relative to control; format: protein assay
[13] = target: T1, Cannabinoid receptor (Mus musculus); experiment: Agonist activity at cannabinoid receptor in ICR mouse vas deferens assessed as inhibition of electrically induced contractions at 3 x 10^-7 M after 10 mins in presence of CB2 antagonist AM630 relative to control; format: protein assay
[14] = target: T1, Cannabinoid receptor (Mus musculus); experiment: Agonist activity at cannabinoid receptor in ICR mouse vas deferens assessed as inhibition of electrically induced contractions at 8.1 x 10^-6 M after 10 mins relative to control; format: protein assay
[15] = target: T1, Cannabinoid receptor (Mus musculus); experiment: Agonist activity at cannabinoid receptor in ICR mouse vas deferens assessed as inhibition of electrically induced contractions at 10^-7 M after 10 mins relative to control; format: protein assay
[16] = target: T1, Cannabinoid receptor (Mus musculus); experiment: Agonist activity at cannabinoid receptor in ICR mouse vas deferens assessed as inhibition of electrically induced contractions at 10^-7 M after 10 mins in presence of CB1 antagonist AM251 relative to control; format: protein assay
[17] = target: T1, Cannabinoid receptor (Mus musculus); experiment: Agonist activity at cannabinoid receptor in ICR mouse vas deferens assessed as inhibition of electrically induced contractions at 9 x 10^-7 M after 10 mins in presence of CB2 antagonist AM630 relative to control; format: protein assay
[18] = target: T1, Cannabinoid receptor (Mus musculus); experiment: Agonist activity at cannabinoid receptor in ICR mouse vas deferens assessed as inhibition of electrically induced contractions at 2.7 x 10^-6 M after 10 mins in presence of CB1 antagonist AM251 relative to control; format: protein assay
[19] = target: T1, Cannabinoid receptor (Mus musculus); experiment: Agonist activity at cannabinoid receptor in ICR mouse vas deferens assessed as inhibition of electrically induced contractions at 1.82 x 10^-5 M after 10 mins relative to control; format: protein assay
[20] = target: Acetylcholinesterase (Homo sapiens, UniProt P22303); experiment: Inhibition of human erythrocyte AChE using acetylthiocholine as substrate by Ellman's assay
Acetylcholinesterase, sequence (P22303 whole entry): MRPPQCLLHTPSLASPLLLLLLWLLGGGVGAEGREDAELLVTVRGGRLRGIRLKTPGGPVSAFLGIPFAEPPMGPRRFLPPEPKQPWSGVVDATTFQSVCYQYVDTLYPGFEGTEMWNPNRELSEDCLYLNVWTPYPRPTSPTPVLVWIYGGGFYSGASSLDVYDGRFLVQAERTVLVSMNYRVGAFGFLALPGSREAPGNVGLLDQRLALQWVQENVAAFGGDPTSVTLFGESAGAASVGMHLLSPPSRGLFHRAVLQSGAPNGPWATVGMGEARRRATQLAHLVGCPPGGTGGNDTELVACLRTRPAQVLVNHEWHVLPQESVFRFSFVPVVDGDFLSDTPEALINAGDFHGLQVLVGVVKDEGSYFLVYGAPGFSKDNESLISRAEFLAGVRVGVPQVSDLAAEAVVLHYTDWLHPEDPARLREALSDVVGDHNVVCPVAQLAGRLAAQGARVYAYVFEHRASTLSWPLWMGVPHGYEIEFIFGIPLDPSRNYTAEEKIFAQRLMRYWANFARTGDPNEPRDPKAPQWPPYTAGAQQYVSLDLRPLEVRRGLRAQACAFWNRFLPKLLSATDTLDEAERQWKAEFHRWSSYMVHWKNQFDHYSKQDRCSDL

[21] = target: T1, Cannabinoid receptor (Mus musculus); experiment: Agonist activity at cannabinoid receptor in ICR mouse vas deferens assessed as inhibition of electrically induced contractions at 1.82 x 10^-5 M after 10 mins in presence of CB1 antagonist AM251 relative to control; format: protein assay
[22] = target: T1, Cannabinoid receptor (Mus musculus); experiment: Agonist activity at cannabinoid receptor in ICR mouse vas deferens assessed as inhibition of electrically induced contractions at 9 x 10^-7 M after 10 mins in presence of CB1 antagonist AM251 relative to control; format: protein assay

Structure (SMILES)	inhibition [1]	inhibition [2]	inhibition [3]	inhibition [4]	pIC50 [5]	inhibition [7]	inhibition [8]	inhibition [9]	inhibition [10]	inhibition [11]	inhibition [12]	inhibition [13]	inhibition [14]	inhibition [15]	inhibition [16]	inhibition [17]	inhibition [18]	inhibition [19]	inhibition [21]	inhibition [22]	also measured
O=C(c1ccccc1OCc1ccccc1)n1nc(OCCN2CCCC2)c2ccccc21	7.7%	38.8%	32%	-0.5%	6.41	3.7%	-4%	47.2%	76.7%	10.3%	10.4%	-1.6%	32.5%	1.2%	-1.9%	2.7%	5.9%	68.1%	71.2%	1.3%	Activity [6]: inactive; pIC50 [20]: < 5.00
COc1cc(C(=O)n2nc(OCCN3CCCC3)c3ccccc32)cc(OC)c1OC	14.6%	42.4%	6%	6%	< 5.00	7%	-1%	40%	69.5%	10.9%	26.9%	0.8%	49.7%	3.2%	-0.7%	4.1%	15%	78%	74%	5.6%	Activity [6]: inactive; pIC50 [20]: 4.94
COc1ccc(CC(=O)n2nc(OCCN3CCCC3)c3ccccc32)cc1	13.7%	44.3%	17%	-0.9%	5.05	7.9%	0.1%	47.9%	78.6%	14%	23.4%	3.3%	50.3%	2.4%	-1.7%	6.4%	12.2%	76.9%	78.6%	2.4%	Activity [6]: inactive; pIC50 [20]: < 5.00
O=C(c1c(F)ccc(F)c1F)n1nc(OCCN2CCCCC2)c2ccccc21	20.8%	23.6%	14.3%	-3.5%	5.03	9.2%	-3.3%	32.3%	49.1%	12.8%	40.6%	-1.7%	60.9%	4.8%	-5.3%	4.4%	10.4%	73.2%	37.1%	6.7%	Activity [6]: inactive; pIC50 [20]: 5.03
Cc1c(C(=O)c2cccc3ccccc23)c2cccc3c2n1[C@H](CN1CCOCC1)CO3	54.5%	31.9%		-2.7%		32.7%	-1.1%	54.8%	68.9%	33.2%	61.8%	2%	71.4%	17.8%	-3.9%	22%	11.5%	81.3%	52%	2%	
Cc1c(C(=O)NN2CCCCC2)nn(-c2ccc(Cl)cc2Cl)c1-c1ccc(I)cc1		72.7%		-2%											-7.3%		38.4%		84.6%	12.1%	
